According to publication PMC12705613 (Frontiers in Microbiology, 2025):

Experiments:
gut microbiota from WKYs = test: Anaerobic incubation of drug with fecal gut microbiota from WKYs; assay type: in vitro ADME, rat; details: for Qualitative analysis: metabolism to other compounds: WKY gut microbiota in vitro, UHPLC-Q-TOF-MS; for Remaining content: WKY gut microbiota, 40 μM drug, anaerobic 37 °C, mGAM
Procedure: Fresh fecal samples from WKYs and SHRs were collected and immediately transferred to an anaerobic chamber (90% N₂, 5% CO₂, 5% H₂). Fecal suspensions were prepared by homogenizing 1 g of feces in 15 mL of sterile phosphate-buffered saline containing 0.1% L-cysteine. […] Bacteria-free controls contained equivalent drug volumes consistently. […] Drug remaining content and non-target metabolites screen were detected by ultra-high performance liquid chromatography coupled with triple quadrupole mass spectrometry (UHPLC-TQ-MS) and ultra-high performance liquid chromatography with quadrupole time-of-flight mass spectrometry (UHPLC-Q-TOF-MS), respectively. The sample preparation process can be found in the Supplementary material. For UHPLC-Q-TOF-MS analysis, the MS parameters and IDA criteria can be seen in Supplementary Table S1.
The sample processing procedures were tailored to align with the experimental objectives. For qualitative metabolite profiling, supernatants from the co-incubation of bacteria and drugs were collected at designated time points, filtered using a 0.22 μm membrane, lyophilized, and reconstituted in 200 μL of methanol. After vortexing and centrifuging for 10 minutes at 4°C and 12,000 rpm, the supernatant was transferred to an LC vial, and 5 μL aliquot was injected into the UHPLC-Q-TOF-MS/MS. For quantitative analysis, 100 μL aliquots were taken from the co-incubation supernatant and spiked with 1,000 μL of methanol containing 500 ng/mL of irbesartan. Following one minute of vortexing and centrifugation at 12,000 rpm for 10 minutes, the resulting supernatant was transferred to an LC vial, and a 5μL aliquot was injected into the UHPLC-TQ-MS/MS.

[1] = tested on: Enterococcus faecalis (ATCC 51299); assay type: in vitro ADME; details: tested concentrations; OD600
Procedure: (§1) Enterococcus faecalis (ATCC 51299, BNCC) was cultured in modified brain heart infusion (BHI) broth supplemented with L-cysteine HCl (0.5 g/L), vitamin K1 (10 mg/L), hemin (5 mg/L) and resazurin (1 mg/L). Limosilactobacillus reuteri (JCM 1112, Guangdong Academy of Sciences) was cultured in MRS medium at 37 °C in an anaerobic chamber (5%H2, 5%CO2 and 90%N2). Drug metabolism assays were performed in 96-well plates under optimal growth conditions for each strain. […] Each experiment comprised three biological replicates, including a bacteria-free control. The growth of strains was monitored by measuring OD600 (Eon Microplate Spectrophotometer, BioTek) every 2 h for the first 10 h, followed by 12 to 24 h intervals until 72 h. Supernatants were withdrawn at 6, 12, 24, 48, and 72 h. The remaining drug content and the formation of E-3179 were quantified via UHPLC-TQ-MS. The sample preparation for quantitative analysis was the same as in section 2.3.

[2] = tested on: Limosilactobacillus reuteri (JCM 1112); test: Co-incubation of drug with L. reuteri (degradation, growth); assay type: in vitro ADME; details: tested concentrations; OD600
Procedure: as §1

[3] = Stability of the analytes in rat plasma at different storage conditions; assay type: in vitro ADME
Procedure: Analysis of QC samples was performed according to a standard curve, which was obtained from freshly prepared calibration standard samples. The autosampler stability was determined by placing samples in the autosampler rack at 8 ℃ for 24 h. The freeze-thaw stability was evaluated after three complete freeze-thaw cycles (-80 ℃ to 25 ℃) on consecutive days. The short-term stability was determined after samples were exposed to room temperature for 6 h. The long-term stability was assessed after storing the samples at -80 ℃ for 30 days. The analytes were considered stable if the deviation between the mean measured concentration and the nominal concentration was within ± 15.0%.

[4] = after administration; ref Zhou et al., 2009; Mukai et al., 2015; cited from earlier work
human intestinal flora = tested on: human intestinal flora; design: method as in Zimmermann et al., 2019; details: in vitro; fecal samples from healthy individuals; ref Zimmermann et al., 2019; cited from earlier work
[5] = autosampler for 24 h (8 ℃), high nominal conc. (losartan 8000, E-3174 4000, E-3179 1600 ng/mL)
[6] = autosampler for 24 h (8 ℃), low nominal conc. (losartan 0.2, E-3174 10, E-3179 0.4 ng/mL)
[7] = autosampler for 24 h (8 ℃), middle nominal conc. (losartan 2000, E-3174 1000, E-3179 400 ng/mL)
[8] = room temperature for 6 h, high nominal conc. (losartan 8000, E-3174 4000, E-3179 1600 ng/mL)
[9] = room temperature for 6 h, low nominal conc. (losartan 0.2, E-3174 10, E-3179 0.4 ng/mL)
[10] = room temperature for 6 h, middle nominal conc. (losartan 2000, E-3174 1000, E-3179 400 ng/mL)
[11] = three freeze-thaw cycles, high nominal conc. (losartan 8000, E-3174 4000, E-3179 1600 ng/mL)
[12] = three freeze-thaw cycles, low nominal conc. (losartan 0.2, E-3174 10, E-3179 0.4 ng/mL)
[13] = three freeze-thaw cycles, middle nominal conc. (losartan 2000, E-3174 1000, E-3179 400 ng/mL)
[14] = −80°C for 30 days, high nominal conc. (losartan 8000, E-3174 4000, E-3179 1600 ng/mL)
[15] = −80°C for 30 days, low nominal conc. (losartan 0.2, E-3174 10, E-3179 0.4 ng/mL)
[16] = −80°C for 30 days, middle nominal conc. (losartan 2000, E-3174 1000, E-3179 400 ng/mL)

CCCCc1nc(Cl)c(C(=O)O)n1Cc1ccc(-c2ccccc2-c2nnn[nH]2)cc1 [E-3174]
Qualitative analysis: metabolism to other compounds (gut microbiota from WKYs): neither losartan nor E-3174 was metabolized to other compounds | Remaining content (gut microbiota from WKYs; 0 h): 37.45 ± 1.33 µM | Remaining content (gut microbiota from WKYs; 12 h): 41.40 ± 1.42 µM | Remaining content (gut microbiota from WKYs; 24 h): 39.27 ± 1.11 µM | Remaining content (gut microbiota from WKYs; 48 h): 31.95 ± 1.41 µM | Inhibition of growth of E. faecalis [1]: did not inhibit the growth | Inhibition of growth of L. reuteri [2]: did not inhibit the growth | Stability RE [3, 5]: 2.69% | Stability RE [3, 6]: -4.63% | Stability RE [3, 7]: -1.40% | Stability RE [3, 8]: 0.27% | Stability RE [3, 9]: 3.95% | Stability RE [3, 10]: 11.23% | Stability RE [3, 11]: 5.22% | Stability RE [3, 12]: 0.33% | Stability RE [3, 13]: 8.12% | Stability RE [3, 14]: 5.50% | Stability RE [3, 15]: 1.75% | Stability RE [3, 16]: 5.09%

CCCCc1nc(Cl)c(CO)n1Cc1ccc(-c2ccccc2-c2nn[nH]n2)cc1 [Losartan, Losartan potassium]
Qualitative analysis: metabolism to other compounds (gut microbiota from WKYs): neither losartan nor E-3174 was metabolized to other compounds | Remaining content (gut microbiota from WKYs; 0 h): 37.78 ± 2.05 µM | Remaining content (gut microbiota from WKYs; 12 h): 36.96 ± 2.06 µM | Remaining content (gut microbiota from WKYs; 24 h): 36.03 ± 0.78 µM | Remaining content (gut microbiota from WKYs; 48 h): 33.85 ± 0.96 µM | Inhibition of growth of E. faecalis [1]: did not inhibit the growth | Inhibition of growth of L. reuteri [2]: did not inhibit the growth | Stability RE [3, 5]: 8.67% | Stability RE [3, 6]: -4.05% | Stability RE [3, 7]: 12.50% | Stability RE [3, 8]: 5.37% | Stability RE [3, 9]: 12.66% | Stability RE [3, 10]: 10.42% | Stability RE [3, 11]: 6.18% | Stability RE [3, 12]: -2.68% | Stability RE [3, 13]: 9.49% | Stability RE [3, 14]: 4.25% | Stability RE [3, 15]: -7.51% | Stability RE [3, 16]: 12.98% | Excreted in feces [4]: ~60% | Excreted in urine [4]: approximately 35% | Degradation on exposure to fecal samples (human intestinal flora): approximately 20%
